Where two headings read alike, the source gives them in different places.

This note sets out measurements from US9884067B2, “Androgen receptor down-regulating agents and uses thereof” (UNIVERSITY OF MARYLAND EASTERN SHORE, priority 2013, dated 2018).

The subject of series [1] is LNCaP cells. The series can be described thus: MTT colorimetric anti-proliferative assay. The format is cell-based, human. The following applies: for GI50: LNCaP, MTT, 7 days; for fold loss/reduction in anti-proliferative activity: relative to lead compound 5 (or parent 32). Here is the method: The cells were treated for 7 days with renewal of test compound and media on day 4. On the 7th day, medium was renewed and MTT (3-(4,5-dimethylthiazol-2-yl)-2,5-diphenyl-2H-tetrazolium bromide) (Sigma, St Louis, Mo., USA) solution (0.5 mg MTT per ml of media) was added to the medium such that the ratio of MTT: medium was 1:10. The cells were incubated with MTT for 2 hours. The medium was then aspirated and DMSO was added to solubilize the violet MTT-formazan product.

Series [2] addresses T1, AR (Homo sapiens, UniProt P10275, T878A).
T1 construct: host or cells: LNCaP
T1 sequence (P10275 1-920 T878A): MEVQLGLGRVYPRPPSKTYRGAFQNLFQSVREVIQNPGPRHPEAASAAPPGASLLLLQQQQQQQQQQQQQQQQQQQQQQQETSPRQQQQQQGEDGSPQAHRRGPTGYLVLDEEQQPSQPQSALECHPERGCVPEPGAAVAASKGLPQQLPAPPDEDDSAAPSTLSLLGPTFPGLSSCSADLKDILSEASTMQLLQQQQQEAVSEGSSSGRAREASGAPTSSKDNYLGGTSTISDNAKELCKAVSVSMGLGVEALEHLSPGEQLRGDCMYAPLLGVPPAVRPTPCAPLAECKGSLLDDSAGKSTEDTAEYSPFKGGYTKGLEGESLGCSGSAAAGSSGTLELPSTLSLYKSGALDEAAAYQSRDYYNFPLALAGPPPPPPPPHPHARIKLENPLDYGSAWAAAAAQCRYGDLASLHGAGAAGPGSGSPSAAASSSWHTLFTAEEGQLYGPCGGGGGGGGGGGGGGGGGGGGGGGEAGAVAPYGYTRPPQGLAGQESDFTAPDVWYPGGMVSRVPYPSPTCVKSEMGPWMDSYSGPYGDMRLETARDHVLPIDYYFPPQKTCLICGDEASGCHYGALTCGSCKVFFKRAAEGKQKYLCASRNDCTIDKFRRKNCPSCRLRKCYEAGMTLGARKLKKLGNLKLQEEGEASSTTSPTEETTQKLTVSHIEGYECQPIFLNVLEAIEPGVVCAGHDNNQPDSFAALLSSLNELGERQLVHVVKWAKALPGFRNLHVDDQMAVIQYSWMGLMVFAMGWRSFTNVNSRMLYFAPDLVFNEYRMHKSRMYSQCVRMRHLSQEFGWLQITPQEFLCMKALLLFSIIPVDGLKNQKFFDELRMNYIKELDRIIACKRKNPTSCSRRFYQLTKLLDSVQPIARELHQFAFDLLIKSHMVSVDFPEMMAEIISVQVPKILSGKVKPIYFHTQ
Nature of the series: AR down-regulation, western blot analysis in LNCaP cells. The format is cell-based. The following applies: 24 h, western blot. Here is the method:
For the Western blot analyses, LNCaP or CWR22v1 prostate cancer cells were cultured. The cells were then treated with the indicated compounds and whole cell lysates were prepared using RIPA lysis buffer (Sigma Aldrich) and protease and phosphatase inhibitors (Sigma Aldrich). All of the antibodies were ordered from cell signaling technology. Protein content was determined using the Bradford Assay (Bio-Rad, Hercules, Calif., USA). Protein was subjected to SDS-PAGE and transferred onto nitrocellulosemembrane. Membranes were then incubated with secondary antibody (cell signaling technology) at room temperature for 1 hour. Bands were visualized by chemiluminescence (Millipore). Protein expression was normalized to β-actin and densitometry was carried out using Image J or ImageQuant 5.0 (Molecular Dynamics, Sunnyvale, Calif., USA). CWR22Rv1 cells were used for endogenous levels of splice variant AR-3. Protein levels were analyzed with respective antibodies; full length AR and β-actin antibodies were purchased from cell signaling, antibody specific for splice variant AR-3 was obtained from Dr. Yun Qiu, University of Maryland, School of Medicine, Baltimore.

Where [3] appears, read: Table 4, read-out: GI50 of C-3 modified compounds.
Where [4] appears, read: Homo sapiens, 168 h, Table 2, read-out: GI50 of C-17 modified compounds.
Where [5] appears, read: Table 2, read-out: GI50 of C-17 modified compounds.
[6] abbreviates: Homo sapiens, 168 h, Table 4, read-out: GI50 of C-3 modified compounds.

Turning to “3β-(3-(Oxycarbonyl)phenylacetic acid)-17-(1H-benzimidazol-1-yl)-androsta-5,16-diene [Compound 44]”, in series [1] (setting [3]), the GI50 amounted to 7.78 µM.
The same measure, in the same setting: to `CON=C1C=C2CC[C@@H]3[C@H](CC[C@]4(C)C(n5cnc6ccccc65)=CC[C@@H]34)[C@@]2(C)CC1` (mixture of isomers) [Compound 38, 3-((EZ)-O-Methyloxime)-17-(1H-Benzimidazol-1-yl)-androsta-4,16-diene] belongs 3.38 µM; to `C[C@]12CCC(=NOCc3ccccc3)C=C1CC[C@@H]1[C@@H]2CC[C@]2(C)C(n3cnc4ccccc43)=CC[C@@H]12` (mixture of isomers) [Compound 39, 3-((EZ)-(O-Phenylmethyl)oxime)-17-(1H-Benzimidazol-1-yl)-androsta-4,16-diene], 5.57 µM.
`Cc1cc2ncn(C3=CC[C@H]4[C@@H]5CC=C6C[C@@H](O)CC[C@]6(C)[C@H]5CC[C@]34C)c2cc1C` [Compound 17, 3β-Hydroxy-17-(5,6-dimethyl-1H-benzimidazol-1-yl)-androsta-5,16-diene] returned a melting point of 194 to 196 °C. Also, in series [2], the “AR down-regulation (ARD) activity, in words” value (from here on “AR down-regulation”) was “substantial loss”. Besides, the GI50 in series [1] (setting [4]) turned out to be 42.7 µM.
Take `C[C@]12CC[C@H](O)CC1=CC[C@@H]1[C@@H]2CC[C@]2(C)C(n3cnc4cc(C#N)ccc43)=CC[C@@H]12` [Compound 18, 3β-Hydroxy-17-(5(6)-nitrile-1H-benzimidazol-1-yl)-androsta-5,16-diene]: the “AR down-regulation” value in series [2] is listed as “diminished AR down-regulation (ARD) activity”. Further, in series [1] (setting [5]), the GI50 was found to be 2.81 µM.
In the case of `COc1ccc2ncn(C3=CC[C@H]4[C@@H]5CC=C6C[C@@H](O)CC[C@]6(C)[C@H]5CC[C@]34C)c2c1` [Compound 19, 3β-Hydroxy-17-(6-methoxy-1H-benzimidazol-1-yl)-androsta-5,16-diene], the melting point was 169 to 179 °C. In addition, the “AR down-regulation” value in series [2] was “no modulation of ARDA”. In addition, the GI50 in series [1] (setting [5]) came to 4.26 µM.
The molecule `C[C@]12CC[C@H](O)CC1=CC[C@@H]1[C@@H]2CC[C@]2(C)C(n3cnc4cc5ccccc5cc43)=CC[C@@H]12` [Compound 20, 3β-Hydroxy-17-(1H-benzo[f]benzimidazol-1-yl)-androsta-5,16-diene] displayed a melting point of 150 to 152 °C. In addition, the “AR down-regulation” value in series [2] is “significant loss of ARDA”. Also, in series [1] (setting [4]), the GI50 came out at 19.1 µM.
`C[C@]12CC[C@H](O)CC1=CC[C@@H]1[C@@H]2CC[C@]2(C)C(n3cnc4c(Cl)ncnc43)=CC[C@@H]12` [Compound 21, 3β-Hydroxy-17-(6-Chloro-9H-purin-9-yl)-androsta-5,16-diene] had a melting point of 272 to 274 °C. In series [1] (setting [5]), the GI50 is 13.5 µM. Besides, the “fold loss/reduction in anti-proliferative activity” value (shortened to “fold loss/reduction”) in series [1] is listed as 4 fold.
As for `C[C@]12CC[C@H](O)CC1=CC[C@@H]1[C@@H]2CC[C@]2(C)C(n3c(Cl)nc4ccccc43)=CC[C@@H]12` [Compound 22, 3β-Hydroxy-17-(2-chloro-1H-benzimidazol-1-yl)-androsta-5,16-diene], the melting point lay within 83 to 86 °C. For the same molecule, in series [1] (setting [4]), the GI50 is 10.1 µM. In series [1], the “fold loss/reduction” value came to 3 fold.
The molecule `CC(C)CCNCC1=C(n2cnc3ccccc32)[C@@]2(C)CC[C@H]3[C@@H](CC=C4C[C@@H](O)CC[C@@]43C)[C@@H]2C1` [Compound 25, 3β-Hydroxy-17-(1H-benzimidazol-1-yl)-16-((isopentylamino)methyl)-androsta-5,16-diene] had a melting point of 111 to 113 °C. For the same molecule, in series [2], the “AR down-regulation” value is “significant loss of ARD”.
`C[C@]12CC[C@H](O)CC1=CC[C@@H]1[C@@H]2CC[C@]2(C)C(n3cnc4ccccc43)=C(CNc3ccccc3)C[C@@H]12` [Compound 28, 3β-Hydroxy-17-(1H-benzimidazol-1-yl)-16-((phenylamino)methyl)-androsta-5,16-diene]: the melting point was in the range of 130 to 132 °C. For the same molecule, the “AR down-regulation” value in series [2] is “significant loss of ARD”. The 50% growth inhibitory concentration (GI50) in series [1] (Homo sapiens, 168 h, LNCaP cells, Table 3, read-out: GI50 of C-16 modified compounds) was determined as 22.1 µM.
For the molecule `C[C@]12CCC(=O)C=C1CC[C@@H]1[C@@H]2CC[C@]2(C)C(n3cnc4ccccc43)=CC[C@@H]12` [Compound 32, 17-(1H-Benzimidazol-1-yl)-androsta-4,16-dien-3-one], the GI50 in series [1] (setting [6]) is 2.64 µM.
`C[C@]12CCC(=O)CC1=CC[C@@H]1[C@@H]2CC[C@]2(C)C(n3cnc4ccccc43)=CC[C@@H]12` [Compound 33, 17-(1H-Benzimidazol-1-yl)-androsta-5,16-dien-3-one] came in with a melting point of 170 to 172 °C. Further, in series [1] (setting [6]), the GI50 was 16 µM. The “fold loss/reduction” value in series [1] was approximately 5 fold.
As to `C[C@]12CC[C@H](OS(C)(=O)=O)CC1=CC[C@@H]1[C@@H]2CC[C@]2(C)C(n3cnc4ccccc43)=CC[C@@H]12` [Compound 34, 3β-Mesyloxy-17-(1H-benzimidazol-1-yl)-androsta-5,16-dien], in series [1] (setting [6]), the GI50 was determined as 42.1 µM.
As for `Cc1ccc(S(=O)(=O)O[C@H]2CC[C@@]3(C)C(=CC[C@@H]4[C@@H]3CC[C@]3(C)C(n5cnc6ccccc65)=CC[C@@H]43)C2)cc1` [Compound 35, 3β-Tosyloxy-17-(1H-benzimidazol-1-yl)-androsta-5,16-dien], the melting point was 139 to 141 °C. The GI50 in series [1] (setting [3]) was 47.2 µM.
Regarding `CC1(O)C=C2CC[C@@H]3[C@H](CC[C@]4(C)C(n5cnc6ccccc65)=CC[C@@H]34)[C@@]2(C)CC1` (stereo partly drawn) [Compound 40, 3-Methyl-3-hydroxy-17-(1H-benzimidazol-1-yl)-androsta-4,16-diene], the melting point lay within 95 to 97 °C. The GI50 in series [1] (setting [6]) is 13.3 µM. In addition, in series [1], the “fold loss/reduction” value was approximately 5 fold.
Take `C[C@]12CC[C@H](OC(=O)C3CC=CCC3C(=O)O)CC1=CC[C@@H]1[C@@H]2CC[C@]2(C)C(n3cnc4ccccc43)=CC[C@@H]12` (stereo partly drawn) [Compound 45, 3β-(6-(Cyclohex-3-enecaboxylic acid)carboxylate)-17-(1H-benzimidazol-1-yl)-androsta-5,16-diene]: the GI50 in series [1] (setting [3]) is 8.22 µM.
Turning to `C[C@]12CC[C@H](OC(=O)COCC(=O)O)CC1=CC[C@@H]1[C@@H]2CC[C@]2(C)C(n3cnc4ccccc43)=CC[C@@H]12` [Compound 46, 3β-(Oxycarbonyl-(methoxy)acetic acid)-17-(1H-benzimidazol-1-yl)-androsta-5,16-diene], the GI50 in series [1] (setting [3]) was found to be 9.13 µM.
In the case of `C[C@]12CC[C@H](OC(=O)n3cncn3)CC1=CC[C@@H]1[C@@H]2CC[C@]2(C)C(n3cnc4ccccc43)=CC[C@@H]12` [Compound 49, 3β-(1H-1,2,4-Triazole-1-carboxylate)-17-(1H-benzimidazol-1-yl)-androsta-5,16-diene], the GI50 in series [1] (setting [3]) worked out at 6.67 µM. The “fold decrease in anti-proliferative activity” value in series [1] (relative to 47) is on record as approximately 8 fold.
